{"source": "patent US20250041247A1", "about": "“SMALL MOLECULE INHIBITORS OF REPEAT ASSOCIATED NON-AUG (RAN) TRANSLATION AND COMBINATION THERAPIES” (University of Florida Research Foundation, Incorporated, priority 2021, published 2025)", "key": {"[1]": {"tested_on": "poly-Ala RAN proteins", "assay": "Protein blots for poly-Ala RAN proteins in HEK293T cells transfected with CAG expansion constructs", "assay_type": "cell-based", "conditions": "treatment with different concentrations of quercetin, or metformin", "source_text": "cDNA constructs. […] Antibodies. […] Western blotting. […] Quantification and statistical analysis."}, "[2]": {"tested_on": "C9orf72 ALS/FTD mice (C9)", "assay": "DigiGait gait analysis", "assay_type": "in vivo", "conditions": "18 week female mice", "description": "Gait analysis. Digital video images of the underside of the mouse were collected with a high-speed video camera from below the transparent belt of a motorized treadmill (DigiGait™ Imaging system, Mouse Specific). Female C9orf72 ALS/FTD mice (C9) mice and their littermates (non-transgenic mice (NT)) were tested at 18 weeks of age with treatment beginning at 8 weeks of age. Each mouse was allowed to explore the treadmill compartment with the motor speed set to 14 cm/s for 1 min, then the motor speed was increased to 24c m/s for video recording. Only video recordings in which the mouse walked straight ahead with a constant relative position with respect to the camera were used for analysis. Data from each hind paw was analyzed with DigiGait automated gait analysis software (Mouse Specifics). For additional details, see Neuron, 2016, 90(3), 521-34. doi: 10.1016/j.neuron.2016.04.005. Mock treatment is vehicle only, meaning chow without quercetin."}, "[3]": {"conditions": "Quercetin-NT vs Quercetin C9, significance"}}, "data": [{"smiles": "CN(C)C(=N)NC(=N)N", "note": "[metformin]", "values": [{"measurement": "polyAla RAN proteins expressed from (CAG)exp", "setting": "[1]", "value": "reduction"}]}, {"smiles": "O=c1c(O)c(-c2ccc(O)c(O)c2)oc2cc(O)cc(O)c12", "note": "[quercetin]", "values": [{"measurement": "13 gait abnormalities found between C9orf72 ALS/FTD mice (C9) vs. non-transgenic (NT) mice", "setting": "[2]; DigiGait, treatment beginning at 8 weeks, quercetin in chow", "value": "corrected"}, {"measurement": "Absolute PawAngle (deg)", "setting": "[2]; [3]", "value": "ns"}, {"measurement": "Ataxia Coefficient (real#)", "setting": "[2]; [3]", "value": "ns"}, {"measurement": "Axis Distance (cm/s)", "setting": "[2]; [3]", "value": "ns"}, {"measurement": "Brake (s)", "setting": "[2]; [3]", "value": "ns"}, {"measurement": "BrakeStance (%)", "setting": "[2]; [3]", "value": "ns"}, {"measurement": "BrakeStride (%)", "setting": "[2]; [3]", "value": "ns"}, {"measurement": "Gait Symmetry (real#)", "setting": "[2]; [3]", "value": "ns"}, {"measurement": "Hind Limb Shared Stance Time (s)", "setting": "[2]; [3]", "value": "ns"}, {"measurement": "MAX dA/dT (cm^2/s)", "setting": "[2]; [3]", "value": "ns"}, {"measurement": "MIN dA/dT (cm^2/s)", "setting": "[2]; [3]", "value": "ns"}, {"measurement": "Midline Distance (cm)", "setting": "[2]; [3]", "value": "ns"}, {"measurement": "Overlap Distance (cm)", "setting": "[2]; [3]", "value": "ns"}, {"measurement": "Paw Angle Variability (deg)", "setting": "[2]; [3]", "value": "ns"}, {"measurement": "Paw Area Variability at Peak Stance in sq. cm (cm^2)", "setting": "[2]; [3]", "value": "ns"}, {"measurement": "Paw Area at Peak Stance in sq. cm (cm^2)", "setting": "[2]; [3]", "value": "ns"}, {"measurement": "Paw Drag (real#)", "setting": "[2]; [3]", "value": "ns"}, {"measurement": "PawAngle (deg)", "setting": "[2]; [3]", "value": "ns"}, {"measurement": "PawPlacementPositioning[PPP] (cm)", "setting": "[2]; [3]", "value": "ns"}, {"measurement": "Propel (s)", "setting": "[2]; [3]", "value": "ns"}, {"measurement": "PropelStance (%)", "setting": "[2]; [3]", "value": "ns"}, {"measurement": "PropelStride (%)", "setting": "[2]; [3]", "value": "ns"}, {"measurement": "SLVar (cm)", "setting": "[2]; [3]", "value": "ns"}, {"measurement": "SWVar (cm)", "setting": "[2]; [3]", "value": "ns"}, {"measurement": "Shared Stance (%)", "setting": "[2]; [3]", "value": "ns"}, {"measurement": "Stance (s)", "setting": "[2]; [3]", "value": "ns"}, {"measurement": "Stance/Swing (real#)", "setting": "[2]; [3]", "value": "ns"}, {"measurement": "StanceFactor (real#)", "setting": "[2]; [3]", "value": "ns"}, {"measurement": "StanceStride (%)", "setting": "[2]; [3]", "value": "ns"}, {"measurement": "StanceWidth (cm)", "setting": "[2]; [3]", "value": "ns"}, {"measurement": "StepAngle (deg)", "setting": "[2]; [3]", "value": "ns"}, {"measurement": "StepAngle Var (deg)", "setting": "[2]; [3]", "value": "ns"}, {"measurement": "Steps (real#)", "setting": "[2]; [3]", "value": "ns"}, {"measurement": "Stride (s)", "setting": "[2]; [3]", "value": "ns"}, {"measurement": "Stride Frequency (steps/s)", "setting": "[2]; [3]", "value": "ns"}, {"measurement": "StrideLength (cm)", "setting": "[2]; [3]", "value": "ns"}, {"measurement": "Swing (%)", "setting": "[2]; [3]", "value": "ns"}, {"measurement": "SwingStride (%)", "setting": "[2]; [3]", "value": "ns"}, {"measurement": "Tau - Propulsion (real#)", "setting": "[2]; [3]", "value": "ns"}, {"measurement": "polyAla RAN proteins expressed from (CAG)exp", "setting": "[1]", "value": "reduction"}]}]}
